# Source: patent US20260232681A1, “CRYSTALLINE FORMS OF N-[4-[4-(4-MORPHOLINYL)-7H-PYRROLO[2,3-D]PYRIMIDIN-6- YL]PHENYL]-4-[[3(R)-[(L-OXO-2-PROPEN-L-YL)AMINO]-L-PIPERIDINYL]METHYL]-2-PYRIDINECARBOXAMIDE AS A COVALENT INHIBITOR OF MENIN-MLL INTERACTION” (BIOMEA FUSION, INC., priority 2023, published 2026)
# “Also recorded” adds a separate entry of the source.
# Key:
# [1] = test system: patient-derived DLBCL Triple Hit Lymphoma (THL) and MYC-amplified PDX samples; assay: Ex vivo DLBCL PDX samples (THL, MYC-amplified), six days; format: cell-based, human; conditions: THL/R-CHOP-refractory and MYC amplification/R-EPOCH refractory profiles
# Procedure: (§1) Compound A was tested against a THL cell line (VAL), and a DEL cell line (U2932). An expanded panel of DHL cell lines were tested for sensitivity to Compound A. Ex vivo patient samples of THL and MYC-amplified DLBCL were tested with Compound A. Sensitivity of THL and MYC-driven DLBCL in both in vitro and ex vivo models were compared with clinical reversible menin inhibitors. Compound A was tested against a panel of MM cell lines and ex vivo MM patient samples of p53del, 13qdel, and relapsed/refractory cases.
# (§2) DLBCL cell line TOLEDO was cultured in the presence of Compound A or clinical reversible menin inhibitors for six and fourteen hours. Menin protein expression was reduced up to 60% at 1 μM by Compound A after fourteen hours compared to clinical reversible inhibitors at <20% at similar concentrations. Menin protein expression was measured by the Wes system and analyzed using the Compass software (automated western blotting, Protein Simple). Signal was normalized to GAPDH and referenced to DMSO control (FIG. 171E). DLBCL and MM cell lines were cultured with Compound A, bortezomib (PS-341), or DMSO for four days and cell proliferation was measured by Cell Titer Glo. Ex vivo studies of DLBCL and MM models were conducted by measurement of cell proliferation (Cell Titer Glo) after six days of treatment with Compound A, PS-341, or DMSO control.
# [2] = test system: Zucker Diabetic Fatty (ZDF) rats; assay: Glycemic control and HbA1c in ZDF rats, 28-day dosing plus 28-day washout (Examples 104, 106); format: in vivo
# Procedure: Rats were treated daily with Compound 10, liraglutide, or vehicle for twnety-eight days and monitored for an additional twenty-eight days post-treatment.
# Zucker Diabetic Fatty (ZDF) rats were dosed daily with Compound 10, liraglutide, or vehicle for twenty-eight days (n=10 per group) and monitored for an additional twenty-eight days post last dose. Fasting blood glucose, insulin, C-peptide levels, HbA1c, oral glucose tolerance test (OGTT), and body weight were monitored during and post-treatment.
# ZDF Rat Model—five treatment groups 1. Vehicle; 2. Compound 10 at 40 mg/kg; 3. Compound 10 at 85 mg/kg; 4. Compound 10 at 170 mg/kg; and 5. Liraglutide at 0.2 mg/kg; n=10 per group. Group 2 dose (40 mg/kg) was increased to 200 mg/kg on Day 17 for rest of the dosing phase. Daily dosing zero to twenty-eight days days QD→drug wash out twenty-eight to fifty-six days. Rats were monitored for the following parameters through dosing and wash out phases—body weight, fasting blood sugar, blood insulin, C-peptide, OGTT, and HbA1C.
# [3] = test system: DLBCL cell lines (DHL, THL, DEL, GCB); assay: DLBCL cell line proliferation (Cell Titer Glo, four days); format: cell-based
# Procedure: as §1, §2
# [4] = test system: type 2 diabetes mellitus adult subjects; assay: Clinical study in healthy and type 2 diabetes mellitus subjects (SAD, food effect, MAD; Example 111); format: in vivo, human
# Procedure: In Experimental Phase 1 (SAD cohorts), 40 healthy adult subjects were randomized into 4 dose escalating cohorts of 10. In each cohort, subjects were randomized at 7:3 (active and placebo) in sequential order. Each cohort was composed of 2 sentinel subjects randomized at 1:1 (active and placebo), followed by 8 additional subjects randomized at 3:1 (active and placebo). Doses were 100 mg, 200 mg, 400 mg, and 600 mg.
# In Experimental Phase 1 (3-period crossover, food effect study), each cohort of 12 healthy adult subjects was randomized at 1:1:1:1:1:1 in a 3-period crossover study with 6 treatment sequences.
# In Experimental Phase 2 (MAD cohorts), 1 cohort of 16 healthy adult subjects was randomized at 3:1 (active and placebo), and 7 cohorts of type 2 diabetes mellitus adult subjects were randomized at 5:1 (active and placebo) to obtain safety and efficacy data to identify the potential optimal biological dose (OBD) and a recommended Phase 2 dose (RP2D). Doses were 100 mg, 200 mg, 400 mg, and 600 mg.
# MM cell lines = assay: MM cell line proliferation (Cell Titer Glo, four days); format: cell-based
# Procedure: as §1, §2
# [5] = test system: Human ex vivo PDX tissue models harboring KRAS mutations; assay: Ex vivo KRAS-mutated PDX tissue viability (CellTiter Glo, six days); format: cell-based; conditions: six-day treatment, all samples
# Procedure: MOLM-13 and MiaPaCa-2 cells were incubated with Compound A for twenty-four hours and were analyzed by RNA-seq on an Illumina NextSeq 550 platform. […] Cell viability was measured using CellTiterGlo. Human ex vivo PDX tissue models harboring KRAS mutations were cultured with Compound A and clinical reversible menin inhibitors for six days. Cell viability was measured using CellTiter Glo.
compound,measurement,setting,value
"C=CC(=O)N[C@@H]1CCCN(Cc2ccnc(C(=O)Nc3ccc(-c4cc5c(N6CCOCC6)ncnc5[nH]4)cc3)c2)C1 [Compound A, N-[4-[4-(4-morpholinyl)-7H-pyrrolo[2,3-d]pyrimidin-6-yl]phenyl]-4-[[3(R)-[(1-oxo-2-propen-1-yl)amino]-1-piperidinyl]methyl]-2-pyridinecarboxamide]",growth inhibition of ex vivo patient samples,[1],complete growth inhibition
same,glycemic control by oral glucose tolerance test (OGTT),"[2]; Day 25, versus vehicle",improved glycemic control
same,tolerability,[2]; daily for 28 days,tolerated Compound 10 well
same,HbA1c at all doses tested,[2]; effects lasting fifteen days after the last dose,significant reductions
same,4-hour fasting blood glucose,"[2]; high-dose arm, up to Day 29, listed as Compound 10",strong reduction; also recorded: sustained and significant reduction
same,cell lethality,"[3]; DHL, THL, and DEL DLBCL cell lines, four days",> 90%
same,growth inhibition of THL and DEL cell line models,"[3]; VAL, U2932",complete growth inhibition
same,episodes of symptomatic hypoglycemia,[4]; human patients,No episodes
same,severe or serious TEAEs,[4]; human subjects,No severe or serious TEAEs
same,safety profile,"[4]; human subjects, 4 weeks of treatment",well-tolerated
same,cell lethality,MM cell lines,> 99%
same,growth of ex vivo preclinical models,[5],Complete abrogation of growth
